Experiments:
[1] = target: T1, A2A (h) (Homo sapiens, UniProt P29274); assay: Receptor binding screen, [^3H]CGS 21680; conditions: 10 uM Concentration of Compound I-1-Z; read-out: Mean Value, percent inhibition of control specific binding: A2A (h)
T1 construct: expressed in transfected cells; host or cells: HEK-293 cells

[2] = target: T2, NK2 (h) (Homo sapiens, UniProt P21452); assay: Receptor binding screen, [^125I]NKA; conditions: 10 uM Concentration of Compound I-1-Z; read-out: Mean Value, percent inhibition of control specific binding: NK2 (h)
T2 construct: expressed in transfected cells; host or cells: CHO cells

[3] = target: T3, 5-HT1A (h) (Homo sapiens, UniProt P08908); assay: Receptor binding screen, [^3H]8-OH-DPAT; conditions: 10 uM Concentration of Compound I-1-Z; read-out: Mean Value, percent inhibition of control specific binding: 5-HT1A (h)
T3 construct: expressed in transfected cells; host or cells: HEK-293 cells

[4] = target: T4, CB1 (h) (Homo sapiens, UniProt P21554); assay: Receptor binding screen, [^3H]CP 55940; conditions: 10 uM Concentration of Compound I-1-Z; read-out: Mean Value, percent inhibition of control specific binding: CB1 (h)
T4 construct: expressed in transfected cells; host or cells: CHO cells

[5] = target: T5, MC4 (h) (Homo sapiens, UniProt P32245); assay: Receptor binding screen, [^125I]NDP-α-MSH; conditions: 10 uM Concentration of Compound I-1-Z; read-out: Mean Value, percent inhibition of control specific binding: MC4 (h)
T5 construct: expressed in transfected cells; host or cells: CHO cells

[6] = system: TNF-α (h); assay: Receptor binding screen, [^125I]TNF-α, U-937 cells; set-up: species or system human; conditions: 10 uM Concentration of Compound I-1-Z
[7] = target: T6, D4.4 (h) (Homo sapiens, UniProt P21917); assay: Receptor binding screen, [^3H]spiperone; conditions: 10 uM Concentration of Compound I-1-Z; read-out: Mean Value, percent inhibition of control specific binding: D4.4 (h)
T6 construct: expressed in transfected cells; host or cells: CHO cells

[8] = target: T7, 5-HT transporter (h) (Homo sapiens, UniProt P31645); assay: Receptor binding screen, [^3H]imipramine; conditions: 10 uM Concentration of Compound I-1-Z; read-out: Mean Value, percent inhibition of control specific binding: 5-HT transporter (h)
T7 construct: expressed in transfected cells; host or cells: CHO cells

[9] = target: T8, 5-HT1B (Rattus norvegicus, UniProt P28564); assay: Receptor binding screen, [^125I]CYP; conditions: probe [125I]CYP (radioligand), 10 uM Concentration of Compound I-1-Z, read-out: Mean Value, percent inhibition of control specific binding: 5-HT1B
T8 construct: rat cerebral cortex; from tissue; host or cells: rat cerebral cortex

[10] = system: BB (non-selective); assay: Receptor binding screen, [^125I][Tyr^4]bombesin; set-up: species or system rat; conditions: 10 uM Concentration of Compound I-1-Z
Method: For Table 4 below, the specific ligand binding to the receptors is defined as the difference between the total binding and the nonspecific binding determined in the presence of an excess of unlabelled ligand. The results are expressed as a percent inhibition of control specific binding obtained in the presence of Compound I-1-Z. The IC50 values (concentration causing a half-maximal inhibition of control specific binding) and Hill coefficients (nH) were determined by non-linear regression analysis of the competition curves using Hill equation curve fitting. The inhibition constants (Ki) were calculated from the Cheng Prusoff equation (Ki=IC50/(1+(L/KD)), where L=concentration of radioligand in the assay, and KD=affinity of the radioligand for the receptor). In each experiment, the respective reference compound was tested concurrently with Compound I-1-Z in order to assess the assay suitability.

[11] = target: T9, B2 (h) (Homo sapiens, UniProt P30411); assay: Receptor binding screen, [^3H]bradykinin; conditions: 10 uM Concentration of Compound I-1-Z; read-out: Mean Value, percent inhibition of control specific binding: B2 (h)
T9 construct: expressed in transfected cells; host or cells: CHO cells

[12] = target: T10, DA transporter (h) (Homo sapiens, UniProt Q01959); assay: Receptor binding screen, [^3H]BTCP; conditions: 10 uM Concentration of Compound I-1-Z; read-out: Mean Value, percent inhibition of control specific binding: DA transporter (h)
T10 construct: expressed in transfected cells; host or cells: CHO cells

[13] = target: T11, 5-HT3 (h) (Homo sapiens, UniProt P46098); assay: Receptor binding screen, [^3H]BRL 43694; conditions: 10 uM Concentration of Compound I-1-Z; read-out: Mean Value, percent inhibition of control specific binding: 5-HT3 (h)
T11 construct: expressed in transfected cells; host or cells: CHO cells

[14] = system: Non-Peptide Receptors, Peptide Receptors, Ion Channels; assay: Screening for receptors affected by SSAO inhibitor (specific ligand binding); conditions: 10 μM concentration; receptor families listed
Method: A screening procedure was employed to determine whether compound I-1-Z affects specific ligand binding to various receptors. Ligand binding to the following receptors was not affected by a 10 μM concentration of compound I-1-Z:
Non-Peptide Receptors: Adenosine, Adrenergic, Benzodiazepine, Cannabinoid, Dopamine, GABA, Glutamate, Histamine, Melatonin, Muscarinic, Prostanoid, Purinergic, Serotonin, Sigma;
Peptide Receptors: Angiotensin II, Bombesin, Bradykinin, Calcitonin-related peptide, Chemokine, Cholecystokinin, Cytokine, Endothein, Galanin, Growth factor, Melanocortin, Neurokinin, Neuropeptide Y, Neurotensin, Opioid, Somatostatin, VIP, Vasopressin;
Ion Channels: Calcium, Potassium, Sodium. […]
For Table 4 below, the specific ligand binding to the receptors is defined as the difference between the total binding and the nonspecific binding determined in the presence of an excess of unlabelled ligand. The results are expressed as a percent inhibition of control specific binding obtained in the presence of Compound I-1-Z. The IC50 values (concentration causing a half-maximal inhibition of control specific binding) and Hill coefficients (nH) were determined by non-linear regression analysis of the competition curves using Hill equation curve fitting. […]

[15] = system: oxazolone-induced colitis; assay: Oxazolone-induced colitis; type: in vivo, SJL/J male mice; conditions: 30 mg/kg intraperitoneally, day 0 until day 12; FIG. 2A, 2B
Method: Oxazolone-induced colitis is a TH2-mediated process that closely resembles ulcerative colitis and is responsive to anti-IL4 therapy ((Strober W. et al (2002) Annu. Rev. Immunol. 20: 495, Boirivant M. et al. (1998) J. Ex. Med. 188: 1929). Oxazolone colitis is induced as described (Fuss I. J. et al. (2002) J. Immunol. 168: 900). Briefly, mice are pre-sensitized by epicutaneous application of 1% oxazolone (4-ethoxymethylene-2-phenyl-2oxazolin-5-one, Sigma) in 100% EtOH (200 μL) on day 0, followed by intrarectal administration of 0.75% oxazolone in 50% EtOH (100 μL) to anesthetized SJL/J male mice on day 5 through a 3.5 F catheter inserted 4 cm proximal to the anal verge. Mice are divided in two treatment groups and injected i.p. twice a day with either PBS or a compound of the invention. Injections are initiated at day 0 and are continued through day 12. Disease progression is evaluated by monitoring body weight and survival.
A study was carried out using the protocol described above for oxazolone-induced colitis. […] Disease progression was evaluated until day 15 (10 days after intrarectal administration) by monitoring survival rates and body weight. When following the above-described protocol, disease severity as measured by body weight drop was maximal at day 11 (6 days after intrarectal challenge), although animals started dying on day 9.

T3 sequence (P08908 whole entry): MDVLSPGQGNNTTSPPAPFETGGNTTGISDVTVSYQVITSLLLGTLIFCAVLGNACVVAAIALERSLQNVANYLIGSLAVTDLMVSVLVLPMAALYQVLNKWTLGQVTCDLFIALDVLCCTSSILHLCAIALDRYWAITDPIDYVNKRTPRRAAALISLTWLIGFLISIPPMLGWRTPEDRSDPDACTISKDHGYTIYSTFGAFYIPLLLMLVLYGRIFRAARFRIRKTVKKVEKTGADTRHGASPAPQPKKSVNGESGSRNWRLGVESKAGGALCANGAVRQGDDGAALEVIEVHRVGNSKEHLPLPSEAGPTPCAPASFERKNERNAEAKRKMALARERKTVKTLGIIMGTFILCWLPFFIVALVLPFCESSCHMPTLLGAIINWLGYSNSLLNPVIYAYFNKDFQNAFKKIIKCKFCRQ
T10 sequence (Q01959 whole entry): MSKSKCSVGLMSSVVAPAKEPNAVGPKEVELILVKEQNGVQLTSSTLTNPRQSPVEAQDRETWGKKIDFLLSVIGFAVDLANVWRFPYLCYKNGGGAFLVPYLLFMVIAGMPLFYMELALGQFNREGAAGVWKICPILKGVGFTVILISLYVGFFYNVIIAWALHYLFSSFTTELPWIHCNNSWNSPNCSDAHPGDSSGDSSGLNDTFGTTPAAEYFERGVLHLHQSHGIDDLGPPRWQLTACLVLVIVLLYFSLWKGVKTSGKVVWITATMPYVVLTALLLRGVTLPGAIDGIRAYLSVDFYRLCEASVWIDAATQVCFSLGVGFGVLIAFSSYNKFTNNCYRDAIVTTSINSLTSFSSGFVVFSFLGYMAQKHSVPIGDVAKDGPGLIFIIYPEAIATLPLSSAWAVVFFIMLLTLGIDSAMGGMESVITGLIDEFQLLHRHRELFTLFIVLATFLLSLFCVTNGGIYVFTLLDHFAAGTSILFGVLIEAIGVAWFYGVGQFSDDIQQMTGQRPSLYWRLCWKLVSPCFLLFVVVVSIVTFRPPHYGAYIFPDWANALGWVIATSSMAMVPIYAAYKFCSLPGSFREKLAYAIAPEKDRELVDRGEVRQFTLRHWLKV
T11 sequence (P46098 24-478): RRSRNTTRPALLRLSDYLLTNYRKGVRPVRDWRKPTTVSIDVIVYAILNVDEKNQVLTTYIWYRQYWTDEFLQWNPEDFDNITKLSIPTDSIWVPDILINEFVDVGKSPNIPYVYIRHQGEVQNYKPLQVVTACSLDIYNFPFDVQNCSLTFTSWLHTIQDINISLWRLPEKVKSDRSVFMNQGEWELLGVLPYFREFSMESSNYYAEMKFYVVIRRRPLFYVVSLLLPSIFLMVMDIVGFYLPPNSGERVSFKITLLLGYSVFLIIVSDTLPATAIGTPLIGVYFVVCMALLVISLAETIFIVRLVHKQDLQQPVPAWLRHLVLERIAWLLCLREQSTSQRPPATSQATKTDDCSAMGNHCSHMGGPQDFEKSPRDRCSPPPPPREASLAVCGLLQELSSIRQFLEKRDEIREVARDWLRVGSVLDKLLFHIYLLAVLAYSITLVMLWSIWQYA
T8 sequence (P28564 whole entry): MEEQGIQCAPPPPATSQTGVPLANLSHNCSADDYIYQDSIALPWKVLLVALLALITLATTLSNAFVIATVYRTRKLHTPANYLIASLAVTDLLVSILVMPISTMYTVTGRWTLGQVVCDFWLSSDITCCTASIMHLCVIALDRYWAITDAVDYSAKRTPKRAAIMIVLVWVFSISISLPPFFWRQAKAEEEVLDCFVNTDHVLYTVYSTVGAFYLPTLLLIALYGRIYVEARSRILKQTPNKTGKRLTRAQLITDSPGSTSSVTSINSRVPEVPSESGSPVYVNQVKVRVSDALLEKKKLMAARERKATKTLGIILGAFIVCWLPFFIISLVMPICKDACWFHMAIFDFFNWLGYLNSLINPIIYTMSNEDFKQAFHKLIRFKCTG
T1 sequence (P29274 whole entry): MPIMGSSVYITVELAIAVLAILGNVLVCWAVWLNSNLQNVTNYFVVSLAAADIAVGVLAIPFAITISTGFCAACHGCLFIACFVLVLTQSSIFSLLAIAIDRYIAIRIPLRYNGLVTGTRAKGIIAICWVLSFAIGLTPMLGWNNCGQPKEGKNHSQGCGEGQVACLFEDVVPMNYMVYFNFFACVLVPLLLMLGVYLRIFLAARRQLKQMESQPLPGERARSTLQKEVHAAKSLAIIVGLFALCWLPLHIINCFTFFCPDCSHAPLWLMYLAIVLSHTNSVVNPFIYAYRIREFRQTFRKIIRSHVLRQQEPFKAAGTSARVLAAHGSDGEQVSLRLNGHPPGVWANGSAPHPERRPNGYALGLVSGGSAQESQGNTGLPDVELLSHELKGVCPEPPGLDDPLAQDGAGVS
T9 sequence (P30411 whole entry): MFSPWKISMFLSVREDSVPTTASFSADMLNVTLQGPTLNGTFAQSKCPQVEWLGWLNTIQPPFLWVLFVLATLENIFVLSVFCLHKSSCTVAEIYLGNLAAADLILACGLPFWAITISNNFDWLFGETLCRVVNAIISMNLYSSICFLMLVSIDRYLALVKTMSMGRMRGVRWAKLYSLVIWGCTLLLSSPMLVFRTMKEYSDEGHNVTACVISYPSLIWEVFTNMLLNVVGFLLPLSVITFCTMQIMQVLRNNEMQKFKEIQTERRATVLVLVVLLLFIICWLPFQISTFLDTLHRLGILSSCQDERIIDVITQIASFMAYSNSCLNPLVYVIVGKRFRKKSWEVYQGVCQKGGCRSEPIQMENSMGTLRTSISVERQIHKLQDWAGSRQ
T4 sequence (P21554 whole entry): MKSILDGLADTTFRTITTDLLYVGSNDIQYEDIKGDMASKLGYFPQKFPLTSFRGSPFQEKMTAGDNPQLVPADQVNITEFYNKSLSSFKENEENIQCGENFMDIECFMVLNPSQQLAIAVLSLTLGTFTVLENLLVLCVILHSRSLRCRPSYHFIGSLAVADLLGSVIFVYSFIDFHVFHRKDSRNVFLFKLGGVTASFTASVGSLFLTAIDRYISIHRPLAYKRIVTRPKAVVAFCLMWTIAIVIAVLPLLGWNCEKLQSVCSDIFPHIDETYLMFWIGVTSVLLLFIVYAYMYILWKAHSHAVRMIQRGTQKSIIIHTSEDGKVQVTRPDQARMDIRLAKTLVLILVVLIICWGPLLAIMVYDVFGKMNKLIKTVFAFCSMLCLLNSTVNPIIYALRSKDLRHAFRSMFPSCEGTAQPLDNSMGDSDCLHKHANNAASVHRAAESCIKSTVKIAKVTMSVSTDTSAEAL
T5 sequence (P32245 whole entry): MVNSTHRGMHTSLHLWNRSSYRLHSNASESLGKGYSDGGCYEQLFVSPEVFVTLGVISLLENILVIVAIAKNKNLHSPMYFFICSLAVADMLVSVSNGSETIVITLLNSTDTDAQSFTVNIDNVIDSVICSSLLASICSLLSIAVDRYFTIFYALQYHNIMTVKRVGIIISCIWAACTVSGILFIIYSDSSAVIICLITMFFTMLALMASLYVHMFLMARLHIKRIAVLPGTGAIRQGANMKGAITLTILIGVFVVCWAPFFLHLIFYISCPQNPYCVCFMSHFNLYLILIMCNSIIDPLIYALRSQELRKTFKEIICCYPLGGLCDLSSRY
T6 sequence (P21917 whole entry): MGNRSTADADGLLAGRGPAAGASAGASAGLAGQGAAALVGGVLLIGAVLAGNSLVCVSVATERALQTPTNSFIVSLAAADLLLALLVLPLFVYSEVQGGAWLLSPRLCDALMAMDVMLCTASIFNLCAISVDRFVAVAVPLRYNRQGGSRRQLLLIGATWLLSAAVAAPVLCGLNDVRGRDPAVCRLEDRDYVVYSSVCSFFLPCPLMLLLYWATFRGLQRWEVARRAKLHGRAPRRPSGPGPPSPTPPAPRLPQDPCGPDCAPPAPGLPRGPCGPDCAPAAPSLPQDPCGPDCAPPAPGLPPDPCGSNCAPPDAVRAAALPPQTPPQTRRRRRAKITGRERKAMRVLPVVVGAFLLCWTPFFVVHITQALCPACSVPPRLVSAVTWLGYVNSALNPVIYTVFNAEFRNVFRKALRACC
T7 sequence (P31645 whole entry): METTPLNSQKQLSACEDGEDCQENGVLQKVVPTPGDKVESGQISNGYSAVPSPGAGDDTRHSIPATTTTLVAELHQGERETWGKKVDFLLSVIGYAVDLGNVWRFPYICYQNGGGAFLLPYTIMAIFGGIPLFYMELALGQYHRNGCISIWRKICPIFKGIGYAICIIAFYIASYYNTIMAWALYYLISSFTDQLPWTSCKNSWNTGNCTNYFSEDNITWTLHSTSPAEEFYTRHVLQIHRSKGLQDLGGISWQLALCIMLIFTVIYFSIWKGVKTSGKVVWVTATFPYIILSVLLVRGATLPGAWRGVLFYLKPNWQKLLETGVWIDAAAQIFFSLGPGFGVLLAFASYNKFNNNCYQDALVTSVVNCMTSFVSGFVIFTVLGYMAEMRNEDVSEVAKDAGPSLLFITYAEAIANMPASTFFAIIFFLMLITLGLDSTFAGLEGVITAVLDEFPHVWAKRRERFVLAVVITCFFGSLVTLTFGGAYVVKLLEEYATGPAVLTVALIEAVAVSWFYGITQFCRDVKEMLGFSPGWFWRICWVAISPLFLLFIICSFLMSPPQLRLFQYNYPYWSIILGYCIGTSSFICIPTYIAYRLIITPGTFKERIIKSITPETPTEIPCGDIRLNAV
T2 sequence (P21452 whole entry): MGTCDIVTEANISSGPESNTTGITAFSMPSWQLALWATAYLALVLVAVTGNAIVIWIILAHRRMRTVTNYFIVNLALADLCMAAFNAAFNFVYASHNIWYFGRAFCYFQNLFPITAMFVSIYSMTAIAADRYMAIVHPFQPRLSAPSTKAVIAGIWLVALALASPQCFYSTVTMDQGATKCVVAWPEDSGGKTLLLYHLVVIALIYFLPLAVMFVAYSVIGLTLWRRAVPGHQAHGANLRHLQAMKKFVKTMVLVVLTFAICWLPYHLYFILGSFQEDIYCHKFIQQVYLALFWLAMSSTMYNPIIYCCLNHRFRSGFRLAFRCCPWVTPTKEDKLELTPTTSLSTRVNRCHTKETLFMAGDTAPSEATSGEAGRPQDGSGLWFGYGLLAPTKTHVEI

Row | SMILES | inhibition at 10 µM [1] [%] | inhibition at 10 µM [2] [%] | inhibition at 10 µM [3] [%] | inhibition at 10 µM [4] [%] | inhibition at 10 µM [5] [%] | Mean Value, percent inhibition of control specific binding: TNF-α (h) [6] [%] | inhibition at 10 µM [7] [%] | inhibition at 10 µM [8] [%] | inhibition at 10 µM [9] [%] | Mean Value, percent inhibition of control specific binding: BB (non-selective) [10] [%] | inhibition at 10 µM [11] [%] | inhibition at 10 µM [12] [%] | inhibition at 10 µM [13] [%] | Ligand binding to the listed receptors [14] | survival rates and body weight loss compared with the vehicle group [15]
1 | COc1ccc(C/C(=C/F)CN)cc1.Cl [Compound I-1-Z, (Z)-3-Fluoro-2-(4-methoxybenzyl)-allylamine hydrochloride] | 13 | 3 | 34 | 14 | 8 | −6 | 2 | 47 | 16 | 21 | 1 | 38 | 4 | not affected | –
2 | NC/C(F)=C\Cc1cc(F)cc(C(F)(F)F)c1 [II-1-E, (E)-2-Fluoro-4-(3-fluoro-5-trifluoromethylphenyl)-but-2-enylamine] | – | – | – | – | – | – | – | – | – | – | – | – | – | – | improved survival rates and body weight loss

Source: patent publication US20110269811A1, “INHIBITORS OF SEMICARBAZIDE-SENSITIVE AMINE OXIDASE (SSAO) AND VAP-1 MEDIATED ADHESION USEFUL FOR TREATMENT AND PREVENTION OF DISEASES” (priority 2006, published 2011)
